Laboratory results as given in patent EP1479385B1, “Use of cyclooxygenase-2 inhibitors in the treatment and prevention of neoplasia” (G.D. Searle LLC, priority 1996, dated 1998).

Key:
LNCaP = test: Human prostate cancer LNCaP tumors in nude mice; assay type: in vivo; conditions: dose equivalent to 6 mg/kg/day in the drinking water
Excerpt: (§1) Two human prostate cancer cell lines (PC-3 and LNCaP) were obtained (ATCC) to determine the efficacy of cyclooxygenase-2 inhibitors to inhibit tumor growth in a therapeutic model. In addition, the LNCaP cell line secretes prostate serum antigen (PSA) when grown in nude mice.
PSA level was reduced to approximately 50% as judged by western blotting.

Lewis lung carcinomas = test: Murine Lewis lung carcinoma model (tumor volume); assay type: in vivo, C57BL/6 mice; conditions: day 32 after cancer cell injection, vs control group
Protocol: Lewis lung carcinomas were implanted sub-cutaneously into the foot pad of male C57BL/6 mice. The mice were subsequently treated with 4-[5-(4-chlorophenyl)-3-(difluoromethyl)-1H-pyrazol-1-yl)benzenesulfonamide. The drug was supplied in the drinking water at 6 mg/kg/day. […] The drug was supplied in the drinking water at the maximum tolerated dose of […]. A total of 10 mice/compound were tested. Tumor volume was determined twice a week using a plethysmometer. The % inhibition value is calculated by calculating the difference in tumor size compared with the control group.

PC-3 cells = test: Human prostate cancer PC-3 tumors in nude mice; assay type: in vivo; conditions: 20 mg/kg/day in water
Protocol: as §1
PC-3 cells (10^6 cells/0.2 ml of 30% matrigel) in RPMI 1640 medium was injected on the back of nude mice. […] After 45 days, PGE2 and TXB2 were measured.

[1] = test system: Lewis Lung carcinoma cells; test: Combination therapy in Lewis Lung carcinoma model (tumor volume); assay type: in vivo, C57BL/6 mice; conditions: CTX 50 mg/kg injected on days 5, 7 and 9 after implantation
Protocol: Lewis Lung carcinoma cells (2.5 x 10^6 cells) prepared from a brei carried in C57BL/6 mice were injected sub-cutaneously into the hind legs of mice.

For NS(=O)(=O)c1ccc(-n2nc(C(F)F)cc2-c2ccc(Cl)cc2)cc1 [COX-2 inhibitor, 4-[5-(4-chlorophenyl)-3-(difluoromethyl)-1H-pyrazol-1-yl]benzenesulfonamide], the “inhibited the growth of the tumor” value (LNCaP; day 58) was 55%, the “PSA level was reduced to” value (LNCaP; judged by western blotting) was “approximately 50%” and the “Tumor Volume (Day 32) % Inhibition” value (Lewis lung carcinomas; 6 mg/kg/day in the drinking water) was 70.86%. For the same compound, the inhibited tumor growth (PC-3 cells; administered from day 28, after 45 days) was 55%, the PGE2 levels reduced (PC-3 cells; measured after 45 days) was 80-90% and the TXB2 levels reduced (PC-3 cells; measured after 45 days) was 80-90%.

O=P1(N(CCCl)CCCl)NCCCO1 (centres unmarked) [CTX, Cyclophosphamide] was tested, and the “Tumor Volume (Day 22) % Inhibition” value [1] was 57%.

In the case of COc1ccc2c(c1)c(CC(=O)O)c(C)n2C(=O)c1ccc(Cl)cc1 [Indomethacin, indomethacin, reference compound], the “Tumor Volume (Day 32) % Inhibition” value (Lewis lung carcinomas; 2 mg/kg/day (maximum tolerated dose) in the drinking water) is reported as 62.90%.
